This test concerns aging Wildtype (WT) mice. Kind of test: Aging wildtype mice, 40 weeks weekly prednisone. It is filed as in vivo, mouse. As to the method: Dosing of metabolic and endocrine biomarkers. Glycogen was quantitated using the Glycogen Assay Kit (#ab65620; Abcam, Cambridge, Mass.) from approximately 25 mg frozen-pulverized whole tissue, following manufacturer's instructions and internal standards for calculating μg/mg values. For measurement of whole-tissue ATP/NAD^+ levels, approximately 25 mg frozen-pulverized tissue was extracted in 10% perchloric acid and neutralized in 0.75 M K2CO3, as previously described (Ramsey et al., 2009). NAD+ and ATP were measured by high-pressure liquid chromatography (HPLC) with Shimadzu LC-20A pump (Shimadzu Scientific Instr Inc, Addison, Ill.) and UV-VIS detector, using a Supelco LC-18-T column (15 cm×[…]; #58970-U; Millipore-Sigma, St Louis, Mo.). […] ATP and NAD^+ eluted as sharp peaks at 3 and 14 minutes, respectively, and were normalized to tissue weight of frozen liver tissue for calculating pmol/mg values. Corticosterone was measured in mouse serum and cortisol was measured in human serum using dedicated ELISA kits (#ADI-900-097, Enzo Life Science, Farmingdale, N.Y.; #K7430-100, BioVision, Milpitas, Calif.) according to manufacturer's instructions and internal standards to calculate ng/ml values. Insulin levels were quantitated in mouse and human serum with species-specific ELISA kits (#10-1247-01 (mouse-specific); #10-1113-01 (human-specific); Mercodia, Uppsala, Sweden), following manufacturer's instructions and internal standards to calculate ng/ml values. Free fatty acids were quantitated using Enzychrom Free Fatty Acid Assay kit (#EFFA-100; BioAssay Systems, Hayward, Calif.), following kit's instructions and standards to calculate μM (serum) and nmol/mg (tissue) values. For ketone body dosing, beta-hydroxybutyrate was quantitated using a dedicated colorimetric assay kit (#700190; Cayman Chemical, Ann Arbor, Mich.), following manufacturer's instructions and standards to calculate μM (serum) and nmol/mg (tissue) values. […] Colorimetric reactions were quantitated using a Synergy HTX multi-mode plate reader (BioTek®, Winooski, Vt.) and averaging four reads/sample at appropriate wavelengths. […]
Histology. […] Myofiber/adipocyte CSA quantitation was conducted on 400 myofibers/adipocytes per tissue per mouse. […] Area quantitation was performed by means of ImageJ (Schneider et al., 2012). Sample processing, imaging and CSA quantitation were conducted blinded to treatment groups.
Muscle function, whole-body plethysmography, echocardiography. Forelimb grip strength was monitored using a meter (Cat #1027SM; Columbus Instruments, Columbus, Ohio) blinded to treatment groups. […]

The mark [1] stands for this setting: aging WT mice, weekly prednisone, 40 weeks.

Structures are written as SMILES.

As for `C[C@]12C=CC(=O)C=C1CC[C@@H]1[C@@H]2C(=O)C[C@@]2(C)[C@H]1CC[C@]2(O)C(=O)CO` [prednisone, Prednisone], where the note is “aged WT mice, weekly prednisone, 40 weeks”, the “grip strength, tetanic and specific force, and muscle mass (myofiber CSA)” value was “improved”. The “levels of ATP, NAD+ and glycogen in muscle and heart tissues” value (aging WT mice, weekly prednisone 1 mg/kg i.p., 40 weeks from the age of 6 weeks) is recorded as “increased”. Under setting [1], the “parameters of cardiac contractile function (echocardiography)” value is given as “improved” and the “parameters of respiratory function (whole-body plethysmography)” value is recorded as “improved”.
